Source: US20030072816A1, “Agents improving skin barrier function” (priority 2000, published 2003)

System: Human epidermal keratinocytes
Assay: Formation of CE in cultured keratinocytes (amount of CE by visual observation or count under a microscope)
Format: cell-based
Set-up: key: −: No CE formation; ++: CE formation in an amount equal to that in positive control (growth medium) is observed; +++: Clearly more CE formation than in positive control (growth medium) is observed
Conditions: test substance 3% in MEM containing 0.1% bovine serum albumin, cultured 1 week
Description: Human epidermal keratinocytes were cultured according to the method of Rheinwald & Green (Cell 6: 331-344, 1975). The cells were cultured in a growth medium (DMEM-Ham's F12 (3:1) containing 10% fetal bovine serum, 0.5 μg/ml hydrocortisone, 5 μg/ml insulin, 10^−10 M cholera toxin, 10 ng/ml epidermal growth factor and 1.8×10^−4 M adenine) up to confluent, the medium was replaced with a medium (MEM containing 0.1% bovine serum albumin) containing a test substance, and culturing was continued for further 1 week. After completion of the culturing, Tris-hydrochloric acid buffer containing dithiothreitol and sodium dodecyl sulfate was added, and the mixture was heated at 100° C. for 10 minutes. The insoluble substance was collected by centrifugation at 4,000 g for 10 minutes. The eluent addition and heating were repeated and thereby soluble components were thoroughly removed. The thus obtained insoluble substance was referred to as CE. The amount of the obtained CE was evaluated by visual observation. Otherwise, the number was counted under a microscope using a cytometer.

**Q.** CC(C)CCCC(C)CCCC(C)CCCCC(C)CCCC(C)CCCC(C)C (stereo not shown) [Squalane] was tested. Which CE formation-accelerating effect did it give?
**A.** −
